Columns and labels:
[1] = Non-enzymatic hydrolysis of dT4P-DDAO in the presence of MnCl2, effect of other salts (FIG. 5); settings: 10 or 25 mM salt; 0.5 mM MnCl2; 25 mM Hepes pH 8.1; 95° C. for 60 minutes
Procedure: Twenty μl of 25 mM Hepes, pH 8.1, containing 0.5 mM MnCl2, 1 μm dT4P-DDAO and 10 or 25 mM inorganic or organic salt (see FIG. 5) was heated at 95° C. for 60 minutes. 4 μl of each sample was treated with BAP as described above and read on Tecan ultra plate reader. An unheated sample with MnCl2 (water lane) and a heated sample without Hepes and MnCl2 were used as controls. Fluorescence counts were converted into % degradation as described above.

T. ba polymerase = experiment: PCR amplification with terminal-phosphate labeled nucleoside polyphosphates in the presence of stabilizing additives (FIG. 6); format: biochemical, Thermococcus barosii; settings: dT4P-Me, dC4P-Me, 0.25 mM MnCl2, M13 DNA, 35 cycles
Procedure: Polymerase chain reaction (PCR) mixtures (20 μl) contained 25 mM Hepes (pH 8.1), 10 mM KCl, 2 mM MgSO4, 0.25 mM MnCl2, 1 mg/ml bovine serum albumin, 0.01% (v/v) Tween-20 and 10–25 mM salt as shown in FIG. 6. Each sample also contained 20 μm each of dA4P-Me, dT4P-Me, dC4P-Me, 200 μm dG4P-FlEt, 0.006 units/μl BAP, 2 units of T. ba polymerase, 0.1 μm −40 M13 forward primer, 0.1 μm −28 M13 reverse primer and 0.2 ng M13 DNA. In addition to the terminal-phosphate labeled nucleotide, terminal methyl-blocked dNTP's were used instead of normal dNTP's to prevent degradation by BAP (phosphatase). Latter is required for signal generation from dye-polyphosphate after the nucleotide is incorporated into DNA by polymerase. Reactions were carried out for 35 thermal cycles of 90° C., 30 sec.; 55° C., 30 sec.; and 65° C., 300 sec. Reaction products were loaded onto 1.6% agarose gels. The gels were stained with SYBR Gold (Molecular Probes) according to the manufacturers' instructions and scanned at 532 nm using a Typhoon fluorescence scanner (Amersham Biosciences). Gel size markers were a 100 bp ladder (Amersham Biosciences).

[2] = Non-enzymatic hydrolysis of dT4P-DDAO in the presence of MnCl2, effect of ammonium sulfate and related salts (FIG. 4); format: physicochemical; settings: 10 mM salt; 0.5 mM MnCl2; 25 mM Tris.HCl pH 9.0; 95° C. for 60 minutes
Procedure: Four μl of each reaction mix was mixed with 16 μl of BAP solution in Hepes (0.005 units BAP/μl) and incubated at 37° C. for 60 minutes. Samples were read on Tecan ultra plate reader. Un heated sample and unheated sample without MnCl2 were used as controls. Raw fluorescence counts were converted into % degradation by using fluorescence counts from a Snake Venom phosphodiesterase hydrolyzed sample as 100% degraded sample.

[3] = target: pfu (with A486Y mutation) polymerase (Pyrococcus furiosus, UniProt P61875, A486Y); experiment: Quantitative PCR with terminal-phosphate labeled nucleoside polyphosphates on ABI 7900; format: biochemical; settings: 200 μm dG4P-FlEt with dA4P-Me, dT4P-Me, dC4P-Me; BAP; 50 cycles; FIG. 7
Procedure: Polymerase chain reaction (PCR) mixtures (20 μl) contained 25 mM Tris.HCl (pH 9.0), 10 mM KCl, 2 mM MgSO4, 0.25 mM MnCl2, 1 mg/ml bovine serum albumin and 0.01% (v/v) Tween-20. Each sample also contained 20 μm each of dA4P-Me, dT4P-Me, dC4P-Me, 200 μm dG4P-FlEt, 0.005 units/μl BAP, 2 units of pfu (with A486Y mutation) polymerase, 0.1 μm −40 M13 forward primer, 0.1 μM −28 M13 reverse primer and 1.2×10^6–1.2×10^9 copies of M13 DNA. In addition to the terminal-phosphate labeled nucleotide, the remaining nucleotides were blocked with a methyl group on the terminal phosphate to prevent degradation by BAP. Reactions were carried out for 50 thermal cycles of 90° C., 30 sec.; 55° C., 30 sec.; and 65° C., 300 sec on ABI 7900 instrument.
Reaction products were also loaded onto 1.6% agarose gels. The gels were stained with SYBR Gold (Molecular Probes) according to the manufacturers' instructions and scanned at 532 nm using a Typhoon fluorescence scanner (Amersham Biosciences) to show the formation of PCR product (FIG. 8). Gel size markers were a 100 bp ladder (Amersham Biosciences).

Sequence of pfu (with A486Y mutation) polymerase (P61875 whole entry A486Y): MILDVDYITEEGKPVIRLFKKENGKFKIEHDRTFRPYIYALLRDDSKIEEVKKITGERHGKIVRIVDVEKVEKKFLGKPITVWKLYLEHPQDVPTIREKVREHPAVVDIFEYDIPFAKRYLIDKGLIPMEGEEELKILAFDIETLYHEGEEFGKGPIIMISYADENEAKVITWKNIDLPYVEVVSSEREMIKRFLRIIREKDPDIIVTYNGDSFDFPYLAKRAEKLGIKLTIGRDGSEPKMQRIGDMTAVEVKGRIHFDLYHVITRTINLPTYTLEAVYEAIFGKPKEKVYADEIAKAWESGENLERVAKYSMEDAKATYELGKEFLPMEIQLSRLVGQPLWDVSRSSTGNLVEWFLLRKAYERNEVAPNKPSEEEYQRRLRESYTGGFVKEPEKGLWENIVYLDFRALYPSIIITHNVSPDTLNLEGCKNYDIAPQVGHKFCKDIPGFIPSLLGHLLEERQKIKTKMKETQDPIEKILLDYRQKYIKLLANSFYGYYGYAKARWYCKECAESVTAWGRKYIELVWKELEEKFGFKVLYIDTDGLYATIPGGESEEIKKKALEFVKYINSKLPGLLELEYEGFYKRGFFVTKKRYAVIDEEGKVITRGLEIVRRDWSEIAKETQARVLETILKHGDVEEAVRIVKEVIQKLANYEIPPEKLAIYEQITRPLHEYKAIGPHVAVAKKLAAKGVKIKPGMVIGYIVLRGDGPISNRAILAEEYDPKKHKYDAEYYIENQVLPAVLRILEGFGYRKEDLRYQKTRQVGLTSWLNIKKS

Compound | stabilization of dT4P-DDAO (% degradation) [1] | PCR product formation in the presence of the additive (T. ba polymerase; 10–25 mM salt, dA4P-Me, dG4P-FlEt) | stabilization of dT4P-DDAO (% degradation) [2] | PCR product formation (T. ba polymerase; absence of any stabilizer, with dA4P-Me) | cycle count at fluorescence threshold plotted against input M13 DNA copies [3]
N.N.O=S(=O)(O)O [ammonium sulfate] | stabilize the nucleotide | PCR product was separated | clearly stabilizes | – | –
CCOc1ccc2c(c1)Oc1cc(OP(=O)(O)OP(=O)(O)OP(=O)(O)OP(=O)(O)OC[C@H]3O[C@@H](n4cnc5c(=O)[nH]c(N)nc54)C[C@@H]3O)ccc1C21OC(=O)c2ccccc21 (some centres unmarked) [dG4P-FlEt, 2′-Deoxyguanosine-5′-(δ-3′-(6′-ethoxyfluorescein)) tetraphosphate] | – | – | – | PCR product was separated | straight line
